Laboratory results: ChEMBL document CHEMBL2396520, “The development of CNS-active LRRK2 inhibitors using property-directed optimisation” (Bioorg Med Chem Lett, 2013)

How the values were obtained:
[1] = target: T1, Leucine-rich repeat serine/threonine-protein kinase 2 (Homo sapiens, UniProt Q5S007, G2019S); assay: Inhibition of GST-tagged LRRK2 (1326 to 2527 amino acids) G2019S mutant (unknown origin)
Brain = assay: Drug uptake in mouse brain at 1 mg/kg, iv; format: ADME, organism-based; design: dose 1 mg/kg, route intravenous; conditions: in vivo
[2] = target: T1, Leucine-rich repeat serine/threonine-protein kinase 2; assay: Inhibition of human recombinant LRRK2 G2019S mutant using biotin-LRRKtide as substrate preincubated for 15 mins prior to substrate addition measured after 60 mins by TR-FRET assay
[3] = target: Leucine-rich repeat serine/threonine-protein kinase 2 (Homo sapiens, UniProt Q5S007); assay: Inhibition of human recombinant wild type LRRK2 using biotin-LRRKtide as substrate preincubated for 15 mins prior to substrate addition measured after 60 mins by TR-FRET assay
Leucine-rich repeat serine/threonine-protein kinase 2 (Homo sapiens, UniProt Q5S007), sequence (Q5S007 whole entry): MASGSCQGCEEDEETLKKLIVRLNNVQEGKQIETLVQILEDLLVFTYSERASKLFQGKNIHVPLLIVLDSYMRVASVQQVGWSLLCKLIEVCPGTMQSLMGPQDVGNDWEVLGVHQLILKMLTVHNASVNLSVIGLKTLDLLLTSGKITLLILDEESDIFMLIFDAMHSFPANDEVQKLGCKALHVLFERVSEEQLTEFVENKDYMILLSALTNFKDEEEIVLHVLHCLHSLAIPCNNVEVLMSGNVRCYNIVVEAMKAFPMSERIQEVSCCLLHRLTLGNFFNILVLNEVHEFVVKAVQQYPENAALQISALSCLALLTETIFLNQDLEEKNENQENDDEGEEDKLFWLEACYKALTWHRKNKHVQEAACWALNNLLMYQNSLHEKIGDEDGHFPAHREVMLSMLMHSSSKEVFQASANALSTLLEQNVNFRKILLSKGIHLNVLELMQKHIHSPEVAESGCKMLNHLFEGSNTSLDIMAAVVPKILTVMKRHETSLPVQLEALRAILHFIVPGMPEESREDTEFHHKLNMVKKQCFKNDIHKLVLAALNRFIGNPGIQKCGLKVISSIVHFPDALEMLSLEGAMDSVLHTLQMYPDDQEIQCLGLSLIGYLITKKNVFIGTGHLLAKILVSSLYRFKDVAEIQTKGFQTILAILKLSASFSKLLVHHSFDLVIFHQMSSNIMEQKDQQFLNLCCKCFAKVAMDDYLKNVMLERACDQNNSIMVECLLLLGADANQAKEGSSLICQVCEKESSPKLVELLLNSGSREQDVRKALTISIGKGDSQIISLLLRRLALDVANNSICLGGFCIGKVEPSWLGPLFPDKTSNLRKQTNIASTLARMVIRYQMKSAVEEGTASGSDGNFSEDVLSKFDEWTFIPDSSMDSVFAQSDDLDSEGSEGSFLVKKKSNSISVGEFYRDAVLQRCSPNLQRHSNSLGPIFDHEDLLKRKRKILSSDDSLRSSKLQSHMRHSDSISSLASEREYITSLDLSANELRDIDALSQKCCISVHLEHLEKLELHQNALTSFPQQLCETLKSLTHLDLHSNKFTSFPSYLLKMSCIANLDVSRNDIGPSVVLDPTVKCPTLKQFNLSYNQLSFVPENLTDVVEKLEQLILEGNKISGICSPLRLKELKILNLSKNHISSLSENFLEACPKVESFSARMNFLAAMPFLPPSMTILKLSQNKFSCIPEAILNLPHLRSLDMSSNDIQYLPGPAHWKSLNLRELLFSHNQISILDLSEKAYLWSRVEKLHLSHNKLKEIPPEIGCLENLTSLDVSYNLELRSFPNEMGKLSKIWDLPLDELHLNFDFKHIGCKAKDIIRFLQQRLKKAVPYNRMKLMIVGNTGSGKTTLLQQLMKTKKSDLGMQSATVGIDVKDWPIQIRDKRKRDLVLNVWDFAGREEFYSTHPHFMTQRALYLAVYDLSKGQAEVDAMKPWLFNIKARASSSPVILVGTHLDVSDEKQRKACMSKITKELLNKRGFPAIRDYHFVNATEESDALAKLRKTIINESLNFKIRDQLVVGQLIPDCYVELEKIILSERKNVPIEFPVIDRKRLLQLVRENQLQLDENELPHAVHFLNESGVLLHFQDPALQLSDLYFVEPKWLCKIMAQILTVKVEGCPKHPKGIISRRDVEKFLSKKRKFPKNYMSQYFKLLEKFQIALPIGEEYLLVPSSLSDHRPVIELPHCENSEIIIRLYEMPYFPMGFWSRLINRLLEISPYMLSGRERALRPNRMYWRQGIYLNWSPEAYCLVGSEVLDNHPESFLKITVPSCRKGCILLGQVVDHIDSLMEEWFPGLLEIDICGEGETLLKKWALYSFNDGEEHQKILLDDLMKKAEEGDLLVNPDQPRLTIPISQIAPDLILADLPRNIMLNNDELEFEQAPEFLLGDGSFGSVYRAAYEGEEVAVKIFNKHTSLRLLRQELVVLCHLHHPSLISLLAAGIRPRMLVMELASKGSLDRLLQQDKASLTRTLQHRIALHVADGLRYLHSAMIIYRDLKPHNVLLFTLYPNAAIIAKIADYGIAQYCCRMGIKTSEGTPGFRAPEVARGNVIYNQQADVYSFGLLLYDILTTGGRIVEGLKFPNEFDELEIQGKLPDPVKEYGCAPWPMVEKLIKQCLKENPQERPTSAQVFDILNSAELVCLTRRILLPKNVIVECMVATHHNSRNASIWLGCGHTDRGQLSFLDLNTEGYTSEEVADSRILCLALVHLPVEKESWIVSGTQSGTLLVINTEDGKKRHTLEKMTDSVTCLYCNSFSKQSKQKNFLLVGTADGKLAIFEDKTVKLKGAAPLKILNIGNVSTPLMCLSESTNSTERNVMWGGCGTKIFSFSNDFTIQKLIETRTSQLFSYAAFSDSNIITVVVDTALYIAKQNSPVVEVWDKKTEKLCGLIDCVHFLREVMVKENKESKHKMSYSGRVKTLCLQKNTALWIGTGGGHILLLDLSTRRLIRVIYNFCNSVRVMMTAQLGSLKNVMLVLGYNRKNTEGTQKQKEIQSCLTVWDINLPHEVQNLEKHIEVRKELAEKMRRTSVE

T1 sequence (Q5S007 whole entry G2019S, the tested form may be a part): as the sequence (Q5S007 whole entry) above, with G2019S counted along it

| Drug uptake (Brain) [%] | IC50 [2] [nM] | Ki [2] [nM] | IC50 [3] [nM] | Structure (SMILES) | Ki [1] [nM] |
| --- | --- | --- | --- | --- | --- |
| – | – | – | – | COc1cc(C(=O)N2CCC(N3CCN(C)CC3)CC2)ccc1Nc1ncc2c(n1)N(C)c1ccccc1C(=O)N2C | 6 |
| 4 | 7 | 7 | 4 | COc1cc(N2CCOCC2)ccc1Nc1ncc(F)c(Nc2ccccc2NS(C)(=O)=O)n1 | – |
